Data on four molecules can be found in publication PMC6028453, “BrlR from Pseudomonas aeruginosa is a receptor for both cyclic di-GMP and pyocyanin” (Nature Communications, 2018).

One data set deals with T1, BrlR-C domain (Pseudomonas aeruginosa, UniProt Q9HUT5).
T1 construct: His6 (cleaved yes); made in house; host or cells: E. coli (same protocol as BrlR, induction at 18 °C)
Kind of data set: Native gel staining with EB. The format is binding. From the text: Fig. 5 The BrlR-C domain can bind to diverse toxic compounds with two adjacent binding pockets. a Structural superpositions of BrlR-C and RH6G-bound SAV2435 (PDB code: 5KAU). The residues in contact with the ligand are shown as stick models and are labeled. Electron density (2Fo - Fc map) for imidazole (blue mesh) binding to the BrlR–c-di-GMP complex is contoured at the 1σ level. b The chemical structures of toxic compounds. c FP analyses of the fluorescein binding to BrlR. The binding curves were fit to deduce the binding affinities. d Two μg of BrlR variants were run on the native gel and stained with EB; the scan results are shown in the upper panel. The proteins were visualized by staining with Coomassie blue in the lower panel. e SPR sensorgram and the resulting affinity fit for pyocyanin binding to BrlR. The ligand binding and dissociation phases for all sensorgrams are shown in the upper panel. The concentrations of a pyocyanin are indicated. The binding responses were measured for 4 s before the end of the injection, and the KD values were calculated using the BIAevaluation software in the lower panel. f The monomeric structure of BrlR-C-3A2P complex. 3A2P, PEG and the conserved residues are shown in stick mode. […]
of multidrug inducers in their C-terminal multidrug-binding domains1-3. […]
However, much more dimers than tetramers were detected (Supplementary Fig. 13a). […]

A further data set deals with T2, BrlR-C (Pseudomonas aeruginosa, UniProt Q9HUT5).
T2 construct: His6 (cleaved yes); made in house; host or cells: E. coli (same protocol as BrlR, induction at 18 °C)
As to the kind of experiment: FP competition experiment, BrlR-C. The format is binding. The conditions noted are these: 550 μM BrlR-C, 1 nM F-c-di-GMP. On the procedure: Supplementary Figure 11: FP analyses of F-c-di-GMP binding to BrlR-C. (a) Isotherms of BrlR-C binding to F-c-di-GMP. The binding experiment was carried out at 25 °C in a buffer containing 150 mM NaCl, 25 mM Tris·HCl (pH 7.5), and 1 nM F-c-di-GMP. Increasing concentrations of BrlR-C were titrated into the reaction mixture to obtain the binding isotherms. (b) Fluorescence polarization competition experiment of BrlR-C. As a control, 550 μM BrlR-C was added to the reaction tube containing 1 nM F-c-di-GMP, and different competitors were respectively added in the solution and the values of millipolarization were recorded.
(1 picture or pasted object on this page, not shown here)

The target of data set [1] is T3, BrlR-C2E mut1 (R31A/D35A/Y40A/Y270A) (Pseudomonas aeruginosa, UniProt Q9HUT5, D35A/R31A/Y270A/Y40A).
T3 construct: His6-SUMO (N, cleaved yes); made in house; host or cells: E. coli BL21 DE3
As to the kind of experiment: FP binding assay, BrlR-C2E mut1. As to the method: (§1) F-c-di-GMP and F-c-di-AMP both contain a fluorophore at one of the 2′-ribose hydroxyls of c-di-GMP and c-di-AMP, respectively (Fig. 2f). To measure the binding of c-di-GMP and c-di-AMP to BrlR variants, 1 nM F-c-di-GMP or F-c-di-AMP was incubated with increasing amounts of indicated BrlR WT, BrlR mutation, or BrlR-C in reaction buffer (25 mM HEPES, 100 mM NaCl, pH 7.5) at 25 °C for 20 min. 1 nM fluorescein was incubated with BrlR WT in the same reaction buffer at 25 °C. FP measurements were conducted on a Synergy 4 Microplate Reader (BioTek) at 25 °C. All experiments were performed in triplicate. The curves were fitted to deduce binding affinities by GraphPad Prism 5.
(§2) BrlR–c-di-GMPs interactions in two separate c-di-GMP binding sites
(§3) In the first binding site, c-di-GMP is half accommodated by the antiparallel β-sheet and two residues (M1 and D35). In detail, the backbone amide protons of the first M1 residue form a hydrogen bond (H-bond) with the phosphate oxygen atom of c-di-GMP, and the side chain of R31 forms two H-bonds with the Gua1 base. The residue D35 also forms an H-bond with the Gua1 base. The aromatic ring of Y40 interacts with the Gua1 base through a hydrophobic π-π interaction. In addition, the hydroxyl group of the Y270 side chain from another subunit interacts with the phosphate 2 of c-di-GMP via an H-bond (Fig. 2d). […]

In data set [2] the target is T4, BrlR (Pseudomonas aeruginosa, UniProt Q9HUT5).
T4 construct: His6-SUMO (N, cleaved yes); made in house; host or cells: E. coli BL21 DE3
As to the kind of experiment: Fluorescence polarization (FP) binding assay, wild-type BrlR. Particulars: 1 nM fluorescent ligand, 25 °C.
Text: The most striking feature of the BrlR–c-di-GMP complex is the c-di-GMP-binding mode. The DNA-binding domain contains two separate c-di-GMP-binding sites, and shares a mutually intercalated c-di-GMP dimer in a stacking conformation with a crystallographic symmetry related binding site (Fig. 2a–c). […] The interactions stabilizing the c-di-GMPs are different for the two binding sites (Fig. 2d, e, and details are described in Supplementary Note 1). […] This structural feature allows us to perform fluorescence polarization (FP)-based binding assays[19],[23],[24] by using a fluoresceinated c-di-GMP analog, 2′-Fluo-AHC-c-di-GMP (F-c-di-GMP), containing a fluorophore attached to one of the 2′-ribose hydroxyls (Fig. 2f).
as §1

In data set [3] the target is T5, BrlR-C2E mut2 (R67A/R86A) (Pseudomonas aeruginosa, UniProt Q9HUT5, R67A/R86A).
T5 construct: His6-SUMO (N, cleaved yes); made in house; host or cells: E. coli BL21 DE3
Kind of data set: FP binding assay, BrlR-C2E mut2. As to the method:
as §1, §2, §3

Data set [4] has as its target T4, BrlR. Particulars: ref 1 (Chambers et al., 2014) of response letter; cited from earlier work.
The target in data set [5] is T6, BrlR (UniProt Q9HUT5 1-270).
T6 sequence: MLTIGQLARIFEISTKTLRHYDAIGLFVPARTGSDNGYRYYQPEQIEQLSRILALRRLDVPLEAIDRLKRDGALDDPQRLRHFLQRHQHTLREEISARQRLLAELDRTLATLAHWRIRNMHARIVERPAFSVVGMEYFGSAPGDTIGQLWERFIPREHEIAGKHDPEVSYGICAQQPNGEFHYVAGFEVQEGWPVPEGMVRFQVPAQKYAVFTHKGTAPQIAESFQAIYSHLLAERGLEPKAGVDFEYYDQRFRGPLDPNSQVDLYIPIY
Kind of data set: EMSA. The conditions noted are these: protein: recombinant; tags: none (His6-SUMO removed); chain copies: 4; label: 5' FAM on strand 1; blunt.

The next data set has as its target T7, BrlR C2E mut2 (UniProt Q9HUT5 1-270, R67A;R86A).
T7 sequence: T6 sequence with R67A, R86A
Kind of data set: EMSA; c-di-GMP (increased). Particulars: protein: recombinant; tags: none (His6-SUMO removed); chain copies: 2; label: 5' FAM on strand 1; blunt.

Another data set has as its target T8, BrlR C2E mut1 (UniProt Q9HUT5 1-270, R31A;D35A;Y40A;Y270A).
T8 sequence: T6 sequence with R31A, D35A, Y40A, Y270A
As to the kind of experiment: EMSA; c-di-GMP (increased). The conditions noted are these: protein: recombinant; tags: none (His6-SUMO removed); chain copies: 2; label: 5' FAM on strand 1; blunt.

Residue numbers refer to the chain shown, from its start.

T3 sequence (Q9HUT5 whole entry R31A/D35A/Y40A/Y270A): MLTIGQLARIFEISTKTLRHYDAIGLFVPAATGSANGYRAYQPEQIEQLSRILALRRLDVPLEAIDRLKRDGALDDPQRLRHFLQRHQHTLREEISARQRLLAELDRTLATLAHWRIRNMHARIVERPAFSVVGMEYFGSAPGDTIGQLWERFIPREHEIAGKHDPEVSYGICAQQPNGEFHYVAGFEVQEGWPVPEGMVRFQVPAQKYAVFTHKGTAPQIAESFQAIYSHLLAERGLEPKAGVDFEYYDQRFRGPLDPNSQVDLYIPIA
T5 sequence (Q9HUT5 whole entry R67A/R86A): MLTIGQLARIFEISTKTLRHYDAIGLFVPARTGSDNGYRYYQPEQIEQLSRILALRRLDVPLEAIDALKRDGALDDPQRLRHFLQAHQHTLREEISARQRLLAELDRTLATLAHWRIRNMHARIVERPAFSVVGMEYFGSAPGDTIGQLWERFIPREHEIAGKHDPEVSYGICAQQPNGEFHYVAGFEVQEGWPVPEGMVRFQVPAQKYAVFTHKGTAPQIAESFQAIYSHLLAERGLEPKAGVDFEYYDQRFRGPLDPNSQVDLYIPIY

Consider `CC[n+]1c(-c2ccccc2)c2cc(N)ccc2c2ccc(N)cc21` [EB, ethidium bromide], for which the “staining of protein in native gel” value on BrlR-C domain was “readily stained”. Moreover, the “competition with F-c-di-GMP binding to BrlR-C” value on BrlR-C is reported as “outcompeted”.
On to 2′-fluo-AHC-c-di-AMP [F-c-di-AMP], for which the Kd came to 63.7 ± 5.1 µM in data set [1], 12.9 ± 0.7 µM at BrlR [2], 12.9 ± 0.65 µM on BrlR [2] (listed as 2′-fluo-AHC-c-di-AMP) and 10.3 ± 0.2 µM in data set [3].
In the case of `Nc1nc2c(ncn2[C@@H]2O[C@H](COP(=O)(O)OP(=O)(O)OP(=O)(O)O)[C@@H](O)[C@H]2O)c(=O)[nH]1` [GTP], the “effect on binding of c-di-GMP to BrlR” value at BrlR [4] is given as “not affected”.

B1: PbrlR 36-bp (dsDNA)
DNA 1: ACCCCTTGACCTTGCCCCAGGGGCAATCCGTAGTCT
DNA 2: AGACTACGGATTGCCCCTGGGGCAAGGTCAAGGGGT
Turning to B1, the binding result with BrlR [5], in the data set with BrlR C2E mut2 and with BrlR C2E mut1 was “binds” each time.
